For four compounds, Relative elastase stability results are on record in patent publication US20080096807A1, “Cyclic vasoactive intestinal peptide receptor-2 agonists” (priority 2006, published 2008).

Bridge positions count the residues as written; N and C are the ends. Square brackets hold non-standard residues; d marks the D form. Peptide text beside a SMILES is read from it. ξ: configuration not given here. Thr(3ξ) = CC(O)[C@H](N)C(=O)O; αMeV = CC(C)[C@](C)(N)C(=O)O; Nle = CCCC[C@H](N)C(=O)O

The data set has as its target T1, human neutrophil elastase (Homo sapiens, UniProt P08246).
T1 sequence (P08246 30-247 limits assumed): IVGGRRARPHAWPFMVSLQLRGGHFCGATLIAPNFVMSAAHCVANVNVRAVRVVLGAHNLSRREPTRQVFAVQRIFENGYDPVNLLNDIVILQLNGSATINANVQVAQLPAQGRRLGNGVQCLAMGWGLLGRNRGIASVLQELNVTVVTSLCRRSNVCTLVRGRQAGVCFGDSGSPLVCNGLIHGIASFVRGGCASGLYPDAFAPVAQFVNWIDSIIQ
The data set can be described thus: Peptide stability to neutrophil elastase (RP HPLC ESI MS). Particulars: halftime with human neutrophil elastase 1 to 2 μg/mL in PBS, ambient temperature, normalized to halftime of the reference standard.
In turn, `CCCC[C@H](NC(=O)[C@H](CCC(N)=O)NC(=O)[C@H](CCCCN)NC(=O)[C@H](CCCNC(=N)N)NC(=O)[C@H](CC(C)C)NC(=O)[C@H](CCCCN)NC(=O)[C@@H](NC(=O)[C@H](Cc1ccc(O)cc1)NC(=O)[C@H](CC(N)=O)NC(=O)[C@H](CCC(=O)O)NC(=O)[C@@H](NC(=O)[C@H](Cc1ccccc1)NC(=O)[C@@](C)(NC(=O)[C@H](C)NC(=O)[C@H](CC(=O)O)NC(=O)[C@H](CO)NC(=O)[C@H](Cc1c[nH]cn1)NC(C)=O)C(C)C)C(C)O)C(C)O)C(=O)N[C@@H](C)C(=O)N[C@@H](C)C(=O)N[C@@H](CCCCN)C(=O)N[C@H]1CCCCNC(=O)C[C@@H](C(=O)N[C@@H](CC(C)C)C(=O)N[C@@H](CC(C)C)C(=O)N[C@@H](CCCCN)C(=O)NCC(=O)NCC(=O)N[C@H](C(N)=O)C(C)O)NC(=O)[C@H](CC(N)=O)NC(=O)[C@H](CC(C)C)NC(=O)[C@H](Cc2ccc(O)cc2)NC1=O` (stereo partly drawn) [Example 20, Ac-His-Ser-Asp-Ala-MeVal-Phe-Thr-Glu-Asn-Tyr-thr-Lys-Leu-Arg-Lys-Gln-Nle-Ala-Ala-Lys-Lys-Tyr-Leu-Asn-Asp-Leu-Leu-Lys-Gly-Gly-Thr-NH2] (Ac-HSDA[αMeV]F[Thr(3ξ)]ENY[Thr(3ξ)]KLRKQ[Nle]AAKKYLNDLLKGG[Thr(3ξ)]-NH2; lactam 21-25) returned a Relative elastase stability of 3.4. As for `CCCC[C@H](NC(=O)[C@H](CCC(N)=O)NC(=O)[C@H](CCCCN)NC(=O)[C@H](CCCNC(=N)N)NC(=O)[C@H](CC(C)C)NC(=O)[C@H](CCCCN)NC(=O)[C@@H](NC(=O)[C@H](Cc1ccc(O)cc1)NC(=O)[C@H](CC(N)=O)NC(=O)[C@H](CCC(=O)O)NC(=O)[C@@H](NC(=O)[C@H](Cc1ccccc1)NC(=O)[C@@](C)(NC(=O)[C@H](C)NC(=O)[C@H](CC(=O)O)NC(=O)[C@H](C)NC(=O)[C@H](Cc1c[nH]cn1)NC(C)=O)C(C)C)C(C)O)C(C)O)C(=O)N[C@@H](C)C(=O)N[C@@H](C)C(=O)N[C@@H](CCCCN)C(=O)N[C@H]1CCCCNC(=O)C[C@@H](C(=O)N[C@@H](CC(C)C)C(=O)N[C@@H](CCCCN)C(=O)N[C@@H](CCCCN)C(=O)NCC(=O)NCC(=O)N[C@H](C(N)=O)C(C)O)NC(=O)[C@H](CC(N)=O)NC(=O)[C@H](CC(C)C)NC(=O)[C@H](Cc2ccc(O)cc2)NC1=O` (stereo partly drawn) [Example 21, Ac-His-Ala-Asp-Ala-MeVal-Phe-Thr-Glu-Asn-Tyr-Thr-Lys-Leu-Arg-Lys-Gln-Nle-Ala-Ala-Lys-Lys-Tyr-Leu-Asn-Asp-Leu-Lys-Lys-Gly-Gly-Thr-NH2], the figure is 5.7; as for `CCCC[C@H](NC(=O)[C@H](CCCNC(=N)N)NC(=O)[C@H](CCCCN)NC(=O)[C@H](CCCNC(=N)N)NC(=O)[C@H](CC(C)C)NC(=O)[C@H](CCCCN)NC(=O)[C@@H](NC(=O)[C@H](Cc1ccc(O)cc1)NC(=O)[C@H](CC(N)=O)NC(=O)[C@H](CCC(=O)O)NC(=O)[C@@H](NC(=O)[C@H](Cc1ccccc1)NC(=O)[C@@](C)(NC(=O)[C@H](C)NC(=O)[C@H](CC(=O)O)NC(=O)[C@H](CO)NC(=O)[C@H](Cc1c[nH]cn1)NC(C)=O)C(C)C)C(C)O)C(C)O)C(=O)N[C@@H](C)C(=O)N[C@@H](C)C(=O)N[C@@H](CCCCN)C(=O)N[C@H]1CCCCNC(=O)C[C@@H](C(=O)N[C@@H](CC(C)C)C(=O)N[C@@H](CCCCN)C(=O)N[C@@H](CCCCN)C(=O)NCC(=O)NCC(=O)N[C@H](C(N)=O)C(C)O)NC(=O)[C@H](CC(N)=O)NC(=O)[C@H](CC(C)C)NC(=O)[C@H](Cc2ccc(O)cc2)NC1=O` (stereo partly drawn) [Example 22, Ac-His-Ser-Asp-Ala-MeVal-Phe-Thr-Glu-Asn-Tyr-Thr-Lys-Leu-Arg-Lys-Arg-Nle-Ala-Ala-Lys-Lys-Tyr-Leu-Asn-Asp-Leu-Lys-Lys-Gly-Gly-Thr-NH2], 1.8; as for `CCCC[C@H](NC(=O)[C@H](CCC(N)=O)NC(=O)[C@H](CCCCN)NC(=O)[C@H](CCCNC(=N)N)NC(=O)[C@H](CC(C)C)NC(=O)[C@H](CCCCN)NC(=O)[C@@H](NC(=O)[C@H](Cc1ccc(O)cc1)NC(=O)[C@H](CC(N)=O)NC(=O)[C@H](CCC(=O)O)NC(=O)[C@@H](NC(=O)[C@H](Cc1ccccc1)NC(=O)[C@@](C)(NC(=O)[C@H](C)NC(=O)[C@H](CC(=O)O)NC(=O)[C@H](C)NC(=O)[C@H](Cc1c[nH]cn1)NC(C)=O)C(C)C)C(C)O)C(C)O)C(=O)N[C@@H](C)C(=O)N[C@@H](C)C(=O)N[C@@H](CCCCN)C(=O)N[C@H]1CCCCNC(=O)C[C@@H](C(=O)N[C@@H](CC(C)C)C(=O)N[C@@H](CC(C)C)C(=O)N[C@@H](CCCCN)C(=O)NCC(=O)NCC(=O)N[C@H](C(N)=O)C(C)O)NC(=O)[C@H](CC(N)=O)NC(=O)[C@H](CC(C)C)NC(=O)[C@H](Cc2ccc(O)cc2)NC1=O` (stereo partly drawn) [Example 23, Ac-His-Ala-Asp-Ala-MeVal-Phe-Thr-Glu-Asn-Tyr-Thr-Lys-Leu-Arg-Lys-Gln-Nle-Ala-Ala-Lys-Lys-Tyr-Leu-Asn-Asp-Leu-Leu-Lys-Gly-Gly-Thr-NH2], 3.6.
